Source: ChEMBL document CHEMBL2074023, “Reversal of acquired resistance to doxorubicin in K562 human leukemia cells by astemizole” (Biol Pharm Bull, 2000)

Experiments:
[1] = molecular target: T1, ATP-dependent translocase ABCB1 (Homo sapiens, UniProt P08183); assay: TP_TRANSPORTER: inhibition of Azidopine photoaffinity labelling (Azidopine: 0.1 uM, Astemizole: 10 uM) in membranes from K562/DOX cells; format: functional, cell membranes, Membrane; details: k562/adr
[2] = molecular target: T1, ATP-dependent translocase ABCB1; assay: TP_TRANSPORTER: increase in Doxorubicin intracellular accumulation (Doxorubicin: 4 uM, Astemizole: 3 uM) in K562/DOX cells; format: functional, cell-based; details: k562/adr

T1 sequence (P08183 whole entry): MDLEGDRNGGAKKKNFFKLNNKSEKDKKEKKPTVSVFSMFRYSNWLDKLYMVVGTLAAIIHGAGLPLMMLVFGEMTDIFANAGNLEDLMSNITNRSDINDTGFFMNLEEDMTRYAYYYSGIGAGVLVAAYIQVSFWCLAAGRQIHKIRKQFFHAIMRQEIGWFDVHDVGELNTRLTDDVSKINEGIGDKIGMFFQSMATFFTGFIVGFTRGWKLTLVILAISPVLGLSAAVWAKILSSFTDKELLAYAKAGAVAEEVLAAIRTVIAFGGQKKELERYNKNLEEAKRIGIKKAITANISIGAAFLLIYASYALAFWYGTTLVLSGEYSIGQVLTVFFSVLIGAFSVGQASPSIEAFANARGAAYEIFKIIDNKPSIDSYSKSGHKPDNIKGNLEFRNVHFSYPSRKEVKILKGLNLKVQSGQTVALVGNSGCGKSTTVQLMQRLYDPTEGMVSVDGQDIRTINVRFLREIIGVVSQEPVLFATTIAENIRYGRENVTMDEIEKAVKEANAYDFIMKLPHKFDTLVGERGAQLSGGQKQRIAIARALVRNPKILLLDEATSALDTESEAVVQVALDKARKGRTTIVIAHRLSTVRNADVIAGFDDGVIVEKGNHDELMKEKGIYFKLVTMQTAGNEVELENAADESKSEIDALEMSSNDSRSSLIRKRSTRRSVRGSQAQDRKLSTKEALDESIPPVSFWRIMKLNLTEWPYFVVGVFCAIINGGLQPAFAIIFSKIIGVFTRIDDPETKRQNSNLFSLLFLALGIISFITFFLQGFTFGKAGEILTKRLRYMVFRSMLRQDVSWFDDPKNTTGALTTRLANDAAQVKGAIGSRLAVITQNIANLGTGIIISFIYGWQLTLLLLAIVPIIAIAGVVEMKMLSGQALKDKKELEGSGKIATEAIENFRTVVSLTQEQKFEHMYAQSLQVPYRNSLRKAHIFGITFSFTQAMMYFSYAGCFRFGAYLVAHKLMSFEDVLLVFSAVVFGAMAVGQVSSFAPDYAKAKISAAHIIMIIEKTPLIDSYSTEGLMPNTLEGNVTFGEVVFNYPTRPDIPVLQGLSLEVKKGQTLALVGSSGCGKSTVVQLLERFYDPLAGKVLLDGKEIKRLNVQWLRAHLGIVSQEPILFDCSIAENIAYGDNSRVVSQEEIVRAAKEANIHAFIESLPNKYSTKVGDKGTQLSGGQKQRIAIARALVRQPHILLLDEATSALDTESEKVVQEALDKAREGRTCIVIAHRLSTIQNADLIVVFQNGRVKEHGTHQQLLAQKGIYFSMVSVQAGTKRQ

Activity [1]: inhibitor [+] | Activity [2]: inhibitor [+]
SMILES: COc1ccc(CCN2CCC(Nc3nc4ccccc4n3Cc3ccc(F)cc3)CC2)cc1 [ASTEMIZOLE]
